Assay results taken from US8415351B2 (priority 2007, dated 2013).

Tests used:
[1] = target: T1, HCV polymerase 1B (Δ21 NS5B, BK) (Hepatitis C virus genotype 1b, UniProt P26663); assay: biochemical
T1 construct: 20 to 50 nM Δ21 NS5B
Experimental: HCV Polymerase Inhibition Assay
Either two-fold serial dilutions (fractional inhibition assay) or a narrower range of dilutions spanning the IC50 of the inhibitor (tight binding assay) of the inhibitors were incubated with 20 mM Tris-Cl pH 7.4, 2 mM MnCl2, 1 mM dithiothreitol, 1 mM ethylene diamine tetraacetic acid (EDTA), 60 to 125 μM GTP and 20 to 50 nM Δ21 NS5B (HCV Strain 1B (BK, Genbank accession number M58335, or H77, Genbank accession number AF011751)) for 15 min at room temperature. The reaction was initiated by the addition of 20 μM CTP, 20 μM ATP, 1 μM ^3H-UTP (10 mCi/umol), 5 nM template RNA and 0.1 U/μl RNase inhibitor (RNasin, Promega), and allowed to proceed for 2 to 4 h at room temperature. Reaction volume was 50 μl. The reaction was terminated by the addition of 1 volume of 4 mM spermine in 10 mM Tris-Cl pH 8.0, 1 mM EDTA. After incubation for at least 15 min at room temperature, the precipitated RNA was captured by filtering through a GF/B filter (Millipore) in a 96 well format. The filter plate was washed three times with 200 μl each of 2 mM spermine, 10 mM Tris-Cl pH 8.0, 1 mM EDTA, and 2 times with ethanol. After air-drying, 30 μl of Microscint 20 scintillation cocktail (Packard) was added to each well, and the retained cpm were determined by scintillation counting. […] Retained cpm were plotted vs. inhibitor concentration and fit to equation 1 using non-linear regression (ref. 1) to obtain the IC50 values: Retained cpm=A[sqrt{(IC50+It−Et)^2+4*IC50*Et}−(IC50+It−Et)]
Ref. Morrison, J. F. and S. R. Stone. 1985. Approaches to the study and analysis of the inhibition of enzymes by slow- and tight-binding inhibitors. Comments Mol. Cell. Biophys. 2: 347-368.
The sequence of the template RNA used was: 5′-[…] […] […] […] […] […] […] […] […] […] […] […] […] […] […] […] […]-3′ (SEQ ID NO: 1)

[2] = tested on: genotype 1b-Con1 subgenomic replicon cell line; assay: microbe, parasite or virus in culture; format: cell-based, HCV; details: Hepatitis C virus, read-out: EC50 1b
[3] = target: T2, HCV polymerase 1A (Δ21 NS5B, H77) (Hepatitis C virus genotype 1a, UniProt P27958); assay: biochemical; details: IC50 1a
T2 construct: 20 to 50 nM Δ21 NS5B
T2 sequence (P27958 2421-2990, stated change not applied): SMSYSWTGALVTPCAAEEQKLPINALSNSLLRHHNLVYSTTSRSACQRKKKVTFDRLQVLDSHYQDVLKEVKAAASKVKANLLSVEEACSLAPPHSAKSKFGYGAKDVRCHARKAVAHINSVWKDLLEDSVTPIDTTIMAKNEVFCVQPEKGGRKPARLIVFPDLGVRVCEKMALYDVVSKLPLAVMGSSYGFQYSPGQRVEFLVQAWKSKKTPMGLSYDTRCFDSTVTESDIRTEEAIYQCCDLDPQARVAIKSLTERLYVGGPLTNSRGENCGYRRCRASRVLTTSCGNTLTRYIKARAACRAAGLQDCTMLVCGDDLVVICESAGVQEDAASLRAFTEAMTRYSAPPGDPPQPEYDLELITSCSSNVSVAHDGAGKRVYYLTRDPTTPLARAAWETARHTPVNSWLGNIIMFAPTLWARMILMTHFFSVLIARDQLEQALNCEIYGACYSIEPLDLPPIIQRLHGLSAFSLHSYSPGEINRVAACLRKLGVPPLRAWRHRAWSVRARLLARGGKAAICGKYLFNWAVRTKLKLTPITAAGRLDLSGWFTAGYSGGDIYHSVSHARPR
Summary of the method: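 Incorporation of 1 μM ^3H-UTP, with 20 μM each of CTP and ATP on 5 nM template RNA, ran 2–4 h at room temperature. Spermine-precipitated product was filtered and scintillation-counted. IC50 came from tight-binding non-linear regression of cpm against inhibitor concentration.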

T1 sequence (P26663 2420-2989, stated change not applied): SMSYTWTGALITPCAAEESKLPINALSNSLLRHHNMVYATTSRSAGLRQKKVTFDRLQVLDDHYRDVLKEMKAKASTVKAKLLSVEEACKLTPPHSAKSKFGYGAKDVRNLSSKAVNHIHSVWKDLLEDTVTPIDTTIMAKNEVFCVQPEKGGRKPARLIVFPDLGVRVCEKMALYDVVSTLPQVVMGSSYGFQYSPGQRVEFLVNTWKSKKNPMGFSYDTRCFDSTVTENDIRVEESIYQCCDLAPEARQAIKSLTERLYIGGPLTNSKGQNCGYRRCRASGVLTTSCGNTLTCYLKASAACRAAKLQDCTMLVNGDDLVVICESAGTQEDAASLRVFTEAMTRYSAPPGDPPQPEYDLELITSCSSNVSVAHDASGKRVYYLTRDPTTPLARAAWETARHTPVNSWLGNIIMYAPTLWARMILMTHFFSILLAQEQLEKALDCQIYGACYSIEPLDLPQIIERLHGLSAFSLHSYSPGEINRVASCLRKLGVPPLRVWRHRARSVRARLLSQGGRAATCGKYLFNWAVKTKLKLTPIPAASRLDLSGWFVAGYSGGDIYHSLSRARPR

| SMILES | IC50 [1] | EC50 [2] | IC50 [3] |
| --- | --- | --- | --- |
| CC(C)(C)c1cc(N2CCC(=O)NC2=O)cc(C(=O)Nc2ccc(NS(=O)(=O)CCN3CCOCC3)cc2)c1O [IA-L3-1.14, 3-tert-butyl-5-(2,4-dioxotetrahydropyrimidin-1(2H)-yl)-2-hydroxy-N-(4-(2-morpholinoethylsulfonamido)phenyl)benzamide] | < 10 nM | 100 to 1000 nM | 10 to 100 nM |
| COCCS(=O)(=O)Nc1ccc(NC(=O)c2cc(N3CCC(=O)NC3=O)cc(C(C)(C)C)c2OC)cc1 [IA-L3-1.54, 3-tert-butyl-5-(2,4-dioxotetrahydropyrimidin-1(2H)-yl)-2-methoxy-N-(4-(2-methoxyethylsulfonamido)phenyl)benzamide] | 100 to 1000 nM | 10 to 100 nM | 10 to 100 nM |
| COc1c(C(=O)Nc2ccc(NS(=O)(=O)CCN(CCO)CCO)cc2)cc(N2CCC(=O)NC2=O)cc1C(C)(C)C [IA-L3-1.56, N-(4-(2-(bis(2-hydroxyethyl)amino)ethylsulfonamido)phenyl)-3-tert-butyl-5-(2,4-dioxo-tetrahydropyrimidin-1(2H)-yl)-2-methoxybenzamide] | 100 to 1000 nM | 100 to 1000 nM | 100 to 1000 nM |
| COc1c(C(=O)Nc2ccc(NS(=O)(=O)CCN3CCOCC3)cc2)cc(N2CCC(=O)NC2=O)cc1C(C)(C)C [IA-L3-1.58, 3-tert-butyl-5-(2,4-dioxotetrahydropyrimidin-1(2H)-yl)-2-methoxy-N-(4-(2-morpholinoethylsulfonamido)phenyl)benzamide] | 100 to 1000 nM | 100 to 1000 nM | 100 to 1000 nM |
| COc1c(C(=O)Nc2ccc(NS(C)(=O)=O)c([N+](=O)[O-])c2)cc(N2CCC(=O)NC2=O)cc1C(C)(C)C [IA-L3-1.87, 3-tert-butyl-5-(2,4-dioxotetrahydropyrimidin-1(2H)-yl)-2-methoxy-N-(4-(methylsulfonamido)-3-nitrophenyl)benzamide] | 100 to 1000 nM | > 1000 nM | > 1000 nM |
| COc1c(C(=O)Nc2ccc(NS(C)(=O)=O)nc2)cc(N2CCC(=O)NC2=O)cc1C(C)(C)C [IA-L3-1.99, 3-tert-butyl-5-(2,4-dioxotetrahydropyrimidin-1(2H)-yl)-2-methoxy-N-(6-(methylsulfonamido)pyridin-3-yl)benzamide] | 100 to 1000 nM | 100 to 1000 nM | 10 to 100 nM |
| COc1c(C(=O)Nc2ccc(N)nc2)cc(N2CCC(=O)NC2=O)cc1C(C)(C)C [IA-L3-1.100, N-(6-aminopyridin-3-yl)-3-tert-butyl-5-(2,4-dioxotetrahydropyrimidin-1(2H)-yl)-2-methoxy benzamide] | 100 to 1000 nM | > 1000 nM | > 1000 nM |
| COc1c(C(=O)Nc2ccc(NS(C)(=O)=O)cn2)cc(N2CCC(=O)NC2=O)cc1C(C)(C)C [IA-L3-1.102, 3-tert-butyl-5-(2,4-dioxotetrahydropyrimidin-1(2H)-yl)-2-methoxy-N-(5-(methylsulfonamido)pyridin-2-yl)benzamide] | 100 to 1000 nM | 100 to 1000 nM | 100 to 1000 nM |
| COc1c(C(=O)Nc2ccc(NS(C)(=O)=O)cc2)cc(N2CCC(=O)NC2=O)cc1C(C)C [IA-L3-1.111, 5-(2,4-dioxotetrahydropyrimidin-1(2H)-yl)-3-isopropyl-2-methoxy-N-(4-(methylsulfonamido)phenyl)benzamide] | 100 to 1000 nM | 100 to 1000 nM | 10 to 100 nM |
| COc1c(C(=O)Nc2ccc(NS(=O)(=O)CCO)cc2)cc(N2CCC(=O)NC2=O)cc1C(C)(C)C [IA-L3-1.122, 3-tert-butyl-5-(2,4-dioxotetrahydropyrimidin-1(2H)-yl)-N-(4-(2-hydroxyethylsulfonamido)phenyl)-2-methoxybenzamide] | 10 to 100 nM | 10 to 100 nM | 10 to 100 nM |
| COc1c(NC(=O)c2ccc(NS(C)(=O)=O)cc2)cc(N2CCC(=O)NC2=O)cc1C(C)(C)C [IA-L4-1.9, N-(3-tert-butyl-5-(2,4-dioxotetrahydropyrimidin-1(2H)-yl)-2-methoxyphenyl)-4-(methylsulfonamido)benzamide] | 10 to 100 nM | 10 to 100 nM | 10 to 100 nM |
| CC(C)(C)OC(=O)NC1CCN(Cc2cc(N3CCC(=O)NC3=O)cc(C(C)(C)C)c2O)C1 (stereo not shown) [IA-L5-1-1.12, {1-[3-tert-butyl-5-(2,4-dioxo-tetrahydro-pyrimidin-1-yl)-2-hydroxy-benzyl]-pyrrolidin-3-yl}-carbamic acid tert-butyl ester] | > 1000 nM |  | > 1000 nM |
| CC1CN(Cc2cc(N3CCC(=O)NC3=O)cc(C(C)(C)C)c2O)CC(C)O1 (stereo not shown) [IA-L5-1-1.13, 1-(3-tert-butyl-5-((2,6-dimethylmorpholino)methyl)-4-hydroxyphenyl)dihydro pyrimidine-2,4(1H,3H)-dione 2,2,2-trifluoroacetate] | > 1000 nM |  | > 1000 nM |
| CC(C)(C)c1cc(N2CCC(=O)NC2=O)cc(CN2CCOCC2)c1O [IA-L5-1-1.14, 1-(3-tert-butyl-4-hydroxy-5-(morpholinomethyl)phenyl)dihydropyrimidine-2,4(1H,3H)-dione 2,2,2-trifluoroacetate] | > 1000 nM |  | > 1000 nM |
| COc1c(Cc2cn(C)c3ccccc23)cc(N2CCC(=O)NC2=O)cc1C(C)(C)C [IA-L5-1-2.1, 1-(3-tert-butyl-4-methoxy-5-((1-methyl-1H-indol-3-yl)methyl)phenyl)dihydropyrimidine-2,4(1H,3H)-dione] | > 1000 nM |  | > 1000 nM |
| CC(C)(C)c1cc(N2CCC(=O)NC2=O)cc(CN2CCCc3cc(NS(C)(=O)=O)ccc32)c1O [IA-L5-1-2.2, N-(1-(3-tert-butyl-5-(2,4-dioxotetrahydropyrimidin-1(2H)-yl)-2-hydroxybenzyl)-1,2,3,4-tetrahydroquinolin-6-yl)methanesulfonamide] | > 1000 nM |  | > 1000 nM |
| CCN(Cc1cc(N2CCC(=O)NC2=O)cc(C(C)(C)C)c1O)C1CCCCC1 [IA-L9-1.1, 1-(3-tert-butyl-5-((cyclohexyl(ethyl)amino)methyl)-4-hydroxyphenyl)dihydropyrimidine-2,4(1H,3H)-dione 2,2,2-trifluoroacetate] | > 1000 nM |  | > 1000 nM |
| CN(Cc1cc(N2CCC(=O)NC2=O)cc(C(C)(C)C)c1O)C1CCCCC1 [IA-L9-1.2, 1-(3-tert-butyl-5-((cyclohexyl(methyl)amino)methyl)-4-hydroxyphenyl)dihydro pyrimidine-2,4(1H,3H)-dione 2,2,2-trifluoroacetate] | > 1000 nM |  | > 1000 nM |
| CC(C)(C)c1cc(N2CCC(=O)NC2=O)cc(CNc2ccc(NS(C)(=O)=O)cc2)c1O [IA-L9-1.3, N-(4-(3-tert-butyl-5-(2,4-dioxotetrahydropyrimidin-1(2H)-yl)-2-hydroxybenzylamino)phenyl)methanesulfonamide] | > 1000 nM |  | > 1000 nM |
| COc1c(C#Cc2ccc(NS(C)(=O)=O)cc2Cl)cc(-n2ccc(=O)[nH]c2=O)cc1C(C)(C)C [IB-L2-1.2, N-(4-((3-tert-butyl-5-(2,4-dioxo-3,4-dihydropyrimidin-1(2H)-yl)-2-methoxyphenyl)ethynyl)-3-chlorophenyl)methanesulfonamide] | 10 to 100 nM | < 10 nM | < 10 nM |
| COc1c(C#Cc2cc(F)c(NS(C)(=O)=O)c(F)c2)cc(-n2ccc(=O)[nH]c2=O)cc1C(C)(C)C [IB-L2-1.4, N-(4-((3-tert-butyl-5-(2,4-dioxo-3,4-dihydropyrimidin-1(2H)-yl)-2-methoxyphenyl)ethynyl)-2,6-difluorophenyl)methanesulfonamide] | 10 to 100 nM | 100 to 1000 nM | 10 to 100 nM |
| COC(=O)c1cc(NS(C)(=O)=O)ccc1C#Cc1cc(-n2ccc(=O)[nH]c2=O)cc(C(C)(C)C)c1OC [IB-L2-1.7, methyl 2-((3-tert-butyl-5-(2,4-dioxo-3,4-dihydropyrimidin-1(2H)-yl)-2-methoxyphenyl)-ethynyl)-5-(methylsulfonamido)benzoate] | 10 to 100 nM | < 10 nM | < 10 nM |
| COc1c(C#Cc2ccc(NS(C)(=O)=O)cc2C(C)(C)C)cc(-n2ccc(=O)[nH]c2=O)cc1C(C)(C)C [IB-L2-1.10, N-(3-tert-butyl-4-((3-tert-butyl-5-(2,4-dioxo-3,4-dihydropyrimidin-1(2H)-yl)-2-methoxy-phenyl)ethynyl)phenyl)methanesulfonamide] | 10 to 100 nM | 10 to 100 nM | < 10 nM |
